Reference: the supplement of paper PMC10307832

Legend:
Experiment in all cases: relative viability (nuclei count vs DMSO), 5 days (fraction); higher = more cells survive
[1] = compound: CN1CCC(CC1)OC2=CC(=C(C=C2)NC3=NC=C4C(=N3)N(C(=O)N4C)C5CCCC5)OC [AZ3146] + CC1(C)CCC(c2ccc(Cl)cc2)=C(CN2CCN(c3ccc(C(=O)NS(=O)(=O)c4ccc(N[C@H](CCN5CCOCC5)CSc5ccccc5)c(S(=O)(=O)C(F)(F)F)c4)cc3)CC2)C1 [Navitoclax] (partner 0.5 µM)
Summary of the method: (§1)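 Dosing by pin tool came one day after lung cancer cell lines were seeded in 1536-well plates, using either one drug or a fixed anchor-drug dose plus five library-drug doses (not always all listed) in √10 steps. After 5 days, nuclei were counted on 4× images. Relative viability is treated-well nuclei count divided by vehicle-well nuclei count, and values are medians of duplicate plates.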

[2] = compound: CCOC(=O)CCNc1cc(N2CCc3ccccc3CC2)nc(-c2ccccn2)n1 [GSK-J4] + CC(C)C[C@H](NC(=O)[C@H](Cc1ccccc1)NC(=O)c1cnccn1)B(O)O [Bortezomib] (partner 0.002 µM)
Summary of the method: as §1

[3] = compound: CN1CCC(CC1)OC2=CC(=C(C=C2)NC3=NC=C4C(=N3)N(C(=O)N4C)C5CCCC5)OC [AZ3146] + Cc1cc(Nc2cc(N3CCN(C)CC3)nc(Sc3ccc(NC(=O)C4CC4)cc3)n2)n[nH]1 [Tozasertib] (partner 0.1 µM)
Summary of the method: as §1

[4] = compound: CCOC(=O)CCNc1cc(N2CCc3ccccc3CC2)nc(-c2ccccn2)n1 [GSK-J4] + CC(=O)Nc1cccc(-n2c(=O)n(C3CC3)c(=O)c3c(Nc4ccc(I)cc4F)n(C)c(=O)c(C)c32)c1 [Trametinib] (partner 0.02 µM)
Summary of the method: as §1

UMC-11
relative viability ([1]; first compound 0.08 µM): 0.32 | relative viability ([1]; first compound 0.253 µM): 0.27 | relative viability ([1]; first compound 0.8 µM): 0.302 | relative viability ([1]; first compound 2.53 µM): 0.312 | relative viability ([1]; first compound 8 µM): 0.252 | relative viability ([2]; first compound 0.5 µM): 0.774 | relative viability ([2]; first compound 1.581 µM): 0.263 | relative viability ([2]; first compound 5 µM): 0.434 | relative viability ([2]; first compound 15.81 µM): 0.759 | relative viability ([2]; first compound 50 µM): 0.561 | relative viability ([3]; first compound 0.08 µM): 0.177 | relative viability ([3]; first compound 0.253 µM): 0.199 | relative viability ([3]; first compound 0.8 µM): 0.204 | relative viability ([3]; first compound 2.53 µM): 0.177 | relative viability ([3]; first compound 8 µM): 0.183 | relative viability ([4]; first compound 0.5 µM): 0.666 | relative viability ([4]; first compound 1.581 µM): 0.336 | relative viability ([4]; first compound 5 µM): 0.255 | relative viability ([4]; first compound 15.81 µM): 0.834 | relative viability ([4]; first compound 50 µM): 0.521
